Columns and labels:
mouse spleen lymphocytes = assay: Proliferation of mouse spleen lymphocytes (ConA, MTT); format: cell-based; conditions: 20 μg/mL, 48 h
Protocol: Tris-NH4Cl was used to break the red blood cells, which were allowed to stand in an ice water bath for 4 min and centrifuged (1000 rpm, 5 min), the supernatant was discarded, and the cells were washed twice with sterile PBS.
The cells were statically cultured in a cell incubator at 37° C. for 48 h. After the completion of the culture, 20 μL of MTT was added to each well, and the culture was continued for 4 h. Finally, all the solutions in each well were discarded, 100 μL of DMSO was added to each well, and the mixture was shaken and detected by a microplate reader for OD value at 570 nm. 5 parallels were preformed for per well.

[1] = system: IL-1β production by mouse peritoneal macrophages; assay: IL-1β production by mouse peritoneal macrophages (ELISA); format: cell-based; conditions: 20 μg/mL, 48 h
Protocol: (1) IL-1β production: mice were intraperitoneally injected with 1 mL of broth medium containing 6% starch, and three days later, the mouse peritoneal macrophages were aseptically taken, washed twice with a 1640 medium, adjusted to the cell concentration of 2×10^6 cells/mL, inoculated into a 24-well culture plate, 1 mL/well, incubated for 3 h in a cell culture incubator, and shaken once every 30 min, so that the cells were allowed to adhere sufficiently. Then, the cells were washed twice with a culture liquid to remove un-adhered cells. […] After administration, the culture was continued for 48 h, the cells were centrifuged at 1000 r/min for 15 min. The supernatant was taken as a sample for testing activity of IL-1β.
(2) Determination of IL-1β content: the detection was performed by using mouse IL-1β enzyme-linked immunosorbent assay kit from R&D company. […]

[2] = system: peritoneal capillary permeability in mice; assay: Peritoneal capillary permeability in mice (Evans blue, HAc); format: in vivo, Kunming mice; conditions: 10 mg/kg by injection
Protocol: The drug was administered once by injection every 5 days, and the blank model group was given an equal volume of physiological saline for 5 days and fed normally. On the 5th day after the administration, a 5 g/L of Evans blue physiological saline solution was injected into the tail vein at […], followed by intraperitoneal injection ([…]) HAc solution (6 mL/L) to induce inflammation. After 20 min, the mice were sacrificed by cervical dislocation. 5 mL of physiological saline was intraperitoneally injected, the abdomen was gently rubbed for 2 min, the abdominal cavity was cut, a peritoneal washing solution was collected and centrifuged at 4000 rpm for 10 min, 1 mL of supernatant was taken, and 3 mL of physiological saline was added to obtain a 4 mL of dilution. The absorbance OD value of the dilution was measured by an ultraviolet spectrophotometer at a wavelength of 590 nm, and the amount of pigment exudation was expressed by the OD590 nm value, and peritoneal capillary permeability in mice was examined.

[3] = system: toe swelling in rat induced by carrageenan; assay: Acute inflammation of toe swelling in rat induced by carrageenan; format: in vivo, SD rats; conditions: 10 mg/kg
Protocol: 80 SD rats were randomly divided into 8 groups with 10 mice for each group. […] The drug was administered once by injection every 5 days, and the model group was given an equal volume of physiological saline for 3 days and fed normally. On the third day after the administration, 0.1 mL of 1% carrageenan was injected subcutaneously into the right hind toes of the rats to induce inflammation. The foot volume was measured at 1 h, 3 h, 5 h, and 7 h after inflammation. The swelling degree of the foot was calculated according to the following formula: the swelling degree of the foot (mL)=the volume of the foot after inflammation−the volume before inflammation. The number of milliliters of spilled liquid was recorded (method: the protruding point of the right joint was circled with a ballpoint pen and used as a measurement mark, and the right hind feet of the rats were sequentially placed in the volume measuring device, so that the hind limbs were exposed outside the cylinder, and the depth of the immersion was limited to the overlap of the circle and the liquid level. After the foot entered the liquid, the liquid level was raised, and the volume of the spilled liquid was the volume of the right hind foot of the rat, and the normal volume of the right hind foot of each mouse is sequentially determined).

[4] = system: human retinal vascular endothelial cell (HRCEC); assay: MTT assay, proliferation of human retinal vascular endothelial cell (HRCEC); format: cell-based; conditions: 5 μg/mL, 48 h
Protocol: The activity of the integrin blocker polypeptide to inhibit proliferation of human retinal vascular endothelial cells was examined by MTT assay. HRCEC cells were cultured in a 5% CO2 incubator at 37° C. to a density of 90% or more, and then collected by trypsinization. The cells were resuspended in the culture liquid and counted under a microscope. The cell concentration was adjusted to 3.0×10^4 cells/mL. The cell suspension was inoculated into a 96-well plate, 100 μL per well, and cultured overnight in a 5% CO2 incubator at 37° C. […] After the cells were fully adhered, each dilution was added to a 96-well plate, 100 μL per well, respectively. […] 20 μL of 5 mg/mL MTT was added to each well of a 96-well plate, and incubation was continued for 4 hours. The medium was aspirated and 100 μL of DMSO was added per well for dissolution. The absorbance was measured at 570 nm with a microplate reader with a reference wavelength of 630 nm, and the proliferation inhibition (PI) was calculated. The formula was as follows: […]
where Ntest is the OD value of the test group and Ncontrol is the OD value of the blank control group.
The test was repeated 5 times independently. The results obtained from the test were calculated as mean±SD, and statistical t-test was performed. P<0.05 was considered as a significant difference, and P<0.01 was considered as an extremely significant difference.

[5] = system: angiogenesis of chicken embryo chorioallantoic membrane; assay: Chicken embryo chorioallantoic membrane (CAM) angiogenesis assay; format: in vivo, White Leghorn chicken embryos; conditions: 10 μg, 72 hours
Protocol: The study has shown that the biosynthesis rate of collagen reached the maximum on the 8th to 11th day of chicken embryo development, which was the most vigorous stage of angiogenesis, and the body's immune system had not yet been fully established at that time, and thus the chicken embryos developed to the 8th day was selected to be administered. […] The following steps were used:
(1) The White Leghorn chicken embryos on day 6 were cultured in a 37° C. incubator at 60%-70% humidity for two days.
(2) A 1.0 cm×1.0 cm window was drilled above the chicken embryo air sac, and the inner membrane was torn off with forceps to expose the chorioallantoic membrane. Lens paper having a diameter of 5 mm was used as a loading carrier, and was placed on the chorioallantoic membrane of the chicken embryo air sac. […]
(3) The chicken embryo air sac was sealed with a sterile transparent tape, and after culturing at 37° C. for 72 hours, the chicken embryo air sac was opened, and a fixative (formaldehyde:acetone=1:1) was added for fixation for 15 minutes. The chorioallantoic membrane to which the lens paper was adhered was taken out, the distribution of the new blood vessels was observed, and the new blood vessels were counted and photographed. Five replicates were set for each dose and the results were statistically analyzed.

| Compound | A570 nm/A630 nm (mouse spleen lymphocytes) | PI (%) (mouse spleen lymphocytes) | IL-1β [1] [pg/mL] | PI (%) ([1]; IL-1β) | Exudation rate (OD590) [2] | Swelling degree ([3]; 1 h after carrageenan) [mL] | Swelling degree ([3]; 3 h after carrageenan) [mL] | Swelling degree ([3]; 5 h after carrageenan) [mL] | Swelling degree ([3]; 7 h after carrageenan) [mL] | A570 nm/A630 nm [4] | Blood vessel number [5] |
| --- | --- | --- | --- | --- | --- | --- | --- | --- | --- | --- | --- |
| C[C@@H]1C[C@H]2[C@@H]3CCC4=CC(=O)C=C[C@]4(C)[C@@]3(F)[C@@H](O)C[C@]2(C)[C@@]1(O)C(=O)CO [Dex, dexamethasone, reference compound] | 0.3468 ± 0.1144 | 41.11 | 322.46 ± 20.56 | 61.38 | 0.27 ± 0.03 | 0.21 ± 0.11 | 0.26 ± 0.10 | 0.26 ± 0.11 | 0.25 ± 0.09 |  |  |
| bevacizumab [Avastin ®, reference compound] |  |  |  |  |  |  |  |  |  | 0.4544 | 63 ± 17 |

— patent US11542311B2, “Fusion protein, preparation method therefor and application thereof in preparing ophthalmic disease treatment, anti-inflammation and anti-tumor medicament” (JIANGSU RONGTAI BIOTECH CO., LTD., priority 2017, dated 2023)
